Results on one molecule are retold here after PMC10877733, “Discovery and Characterization of VU0542270, the First Selective Inhibitor of Vascular Kir6.1/SUR2B KATP Channels” (Molecular Pharmacology, 2024).

By IC50 is commonly meant the concentration at which inhibition is half-maximal. Read a low IC50 as inhibition by little substance.

For series [1], the target named is T1, Kir1.1 (Homo sapiens, UniProt P48048).
T1 construct: expressed in transfected cells
T1 sequence (P48048 1-391): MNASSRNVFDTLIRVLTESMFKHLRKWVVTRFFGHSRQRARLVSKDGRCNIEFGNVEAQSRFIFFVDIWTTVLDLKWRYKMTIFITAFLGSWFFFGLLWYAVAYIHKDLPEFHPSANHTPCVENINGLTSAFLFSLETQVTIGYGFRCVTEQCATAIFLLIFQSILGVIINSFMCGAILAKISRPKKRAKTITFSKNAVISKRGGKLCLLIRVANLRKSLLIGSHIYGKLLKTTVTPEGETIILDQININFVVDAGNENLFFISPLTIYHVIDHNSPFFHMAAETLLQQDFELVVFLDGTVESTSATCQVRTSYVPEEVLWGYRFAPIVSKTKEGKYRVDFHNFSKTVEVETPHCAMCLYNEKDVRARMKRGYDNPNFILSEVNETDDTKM
In words: Thallium flux selectivity assay Kir1.1. The series is classed as cell-based. The method, then:
Quantitative thallium flux assays of Kir6.1/SUR2B activity were performed essentially as described previously for Kir6.2/SUR1 ([Raphemot et al., 2014]; [Kharade et al., 2019]). Stable T-Rex-HEK293-Kir6.1/SUR2B cells or transiently transfected HEK293T cells were plated in polyamine-coated, clear-bottomed, black-walled 384-well plates and were cultured (37°C/5% CO2) overnight in Dulbecco’s modified Eagle’s medium (Gibco, Carlsbad, CA, 11995-065) containing 10% FBS (2 mM Penicillin-Streptomycin). The following day, cells were washed with assay buffer (i.e., Hanks’ balanced salt solution/20 mM HEPES) and loaded for 1 hour with thallium sensor dye Brilliant Thallium (Ion Bioscience, San Marcos, TX) at room temperature. Dye-loaded cells were washed with assay buffer and transferred to a Panoptic Kinetic Imaging Plate Reader (Wavefront Bioscience, Franklin, TN). Control and test compound treatments were for 4 minutes prior to adding 0.5 mM chloride-free thallium stimulus buffer (Ion Bioscience) to initiate thallium flux. […] Selectivity assays against other Kir channels were performed essentially as described previously ([Kharade et al., 2018]; [McClenahan et al., 2022]).

Series [2] can be described thus: Plasma binding by equilibrium dialysis, rat. Type of series: in vitro ADME. The following applies: equilibrium dialysis 6 hours 37°C, read-out: Fu, plasma (rat). The procedure:
Determination of VU0542270 fraction unbound (fu) in plasma from mouse, rat, and human was conducted in vitro via equilibrium dialysis using high-throughput dialysis (HTD) membrane plates. Dialysis membranes (four paired strips per HTD assay) were hydrated as described by the manufacturer and inserted into the HTD plate, which was assembled and prepared for sample addition by the dispensing of blank buffer [Delbecco’s phosphate buffered saline (DPBS), 100 µL/well] into the “top half” of each membrane-split well. VU0542270 was diluted into plasma from each species (5 µM final concentration), which was aliquoted in triplicate to the “bottom half” of the prepared HTD plate wells. The HTD plate was sealed and incubated for 6 hours at 37°C. Following incubation, each well (both top and bottom halves) was transferred (20 µL) to the corresponding well of a 96-shallow-well (V-bottom) plate. […]
fu was calculated as (analyte to IS mass spectrometry (MS) peak area ratio from Trans-buffer side)/(analyte to IS MS peak area ratio from Cis-plasma side). Mean values for each species were calculated from three replicates.
(In equilibrium dialysis only unbound substance equilibrates across the membrane.)

A short description of series [3]: Brain homogenate binding by equilibrium dialysis, rat. Type of series: in vitro ADME. The following applies: read-out: Fu, brain (rat). The procedure:
Determination of VU0542270 fu in […] from mouse and rat was conducted using the same methodology and procedure as described for plasma protein binding assay with the following modifications: 1) a final compound concentration of 1 μM was used, and 2) naïve rat brains were homogenized in DPBS (1:3 composition of brain:DPBS, w/w) using a Mini-Bead Beater machine to obtain brain homogenate.
The diluted fraction unbound (fu2) in brain was calculated as (analyte to IS MS peak area ratio from Trans-buffer side)/(analyte to IS MS peak area ratio from Cis-brain homogenate side). Undiluted fraction unbound for the brain was calculated using the following equation: [drawing 1]
Mean values for each species were calculated from three replicates.

Structures are written as SMILES.

For the molecule `Cc1nc(-c2cccs2)sc1CNC(=O)Nc1cccs1` [VU0542270], the IC50 in series [1] was over 30 µM. The fraction unbound at 6 h, 5 µM in series [2] is 0.01. In series [3], the fraction unbound at 6 h, 1 µM came out at 0.02.
